The values that follow come from patent US6515173B1, “Inhibitors of the ICE/ced-3 family of cysteine proteases” (Idun Pharmaceuticals, Inc., priority 2000, dated 2003).

Molecules are shown by their SMILES. Peptide text beside a SMILES is read from it. * marks the point of attachment. Cbz = O=C(OCc1ccccc1)*; CH2F = FC*

What all share (format): biochemical
Common to all, as to conditions: continuous assay sixty minutes, reaction initiated by adding enzyme to substrate-inhibitor mixture; Ki by simulating AMC formation (Equation 1)

One assay deals with T1, mICE (Mus musculus, UniProt P29452).
T1 sequence (P29452 123-296 limits assumed): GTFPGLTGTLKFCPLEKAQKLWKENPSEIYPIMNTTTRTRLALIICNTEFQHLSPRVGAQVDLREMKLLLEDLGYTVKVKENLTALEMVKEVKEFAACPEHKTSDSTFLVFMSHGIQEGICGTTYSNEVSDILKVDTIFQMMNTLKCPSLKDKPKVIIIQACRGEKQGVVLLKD
T1 sequence (P29452 315-402 limits assumed): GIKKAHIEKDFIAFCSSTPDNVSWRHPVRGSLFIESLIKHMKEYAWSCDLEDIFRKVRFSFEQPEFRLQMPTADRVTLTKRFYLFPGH
As to the kind of experiment: Ki determination, ICE/ced-3 family protease fluorescence assay (mICE). The procedure: (§1) Fluorescence enzyme assays detecting the activity of the compounds of Formula I utilizing the recombinant ICE and CPP32 enzymes are performed essentially according to Thorrberry et al. (Nature, 356:768:774 (1992)) and Nicholson et al. (Nature, 376:37-43 (1995)) respectively, (herein incorporated by reference) in 96 well microtiter plates. The substrate is Acetyl-Tyr-Val-Ala-Asp-amino-4-methylcoumarin (AMC) (SEQ ID NO: 1) for the ICE assay and Acetyl-Asp-Glu-Val-Asp-amino-4-methylcoumarin (SEQ ID NO: 2) for the CPP32, Mch2, Mch3 and Mch5 assays. Enzyme reactions are run in ICE buffer (25 mM HEPES, 1 mM EDTA, 0.1% CHAPS, 10% sucrose, pH 7.5) containing 2 mM DTT at room temperature in duplicate. The assays are performed by mixing the following components:
(§2) 50 μL ICE, Mch2, Mch5, CPP32 (18.8, 38, 8.1 and 0.153 nM concentrations, respectively) or Mch3 (1 unit) enzyme in ICE buffer containing either 8.0 (ICE, Mch2, Mch3, CPP32) or 20 (Mch5) mM DTT;
(§3) 50 μL compound of Formula I or ICE buffer (control); and […]
(§4) […] Fluorescent AMC product formation is monitored for one hour at room temperature by measuring the fluorescence emission at 460 nm using an excitation wavelength of 360 nm. […]
(§5) The product formation at time t may be expressed as: [formula] […]
(§6) The activity of a representative compound of this invention (i.e., Compound No. 1) evaluated according to the procedures disclosed in Example 1. […]

A further assay has as its target MCH-5 (Homo sapiens, UniProt Q14790). Description: Ki determination, ICE/ced-3 family protease fluorescence assay (MCH-5). The procedure: as §1, §2, §3, §4, §5, §6
The next assay concerns the target T2, MCH-2 (Homo sapiens, UniProt P55212).
T2 sequence (P55212 24-179 limits assumed): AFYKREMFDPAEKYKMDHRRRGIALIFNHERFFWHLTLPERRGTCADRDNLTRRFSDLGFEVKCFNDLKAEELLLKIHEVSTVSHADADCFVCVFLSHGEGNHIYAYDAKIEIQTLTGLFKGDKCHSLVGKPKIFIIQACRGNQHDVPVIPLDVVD
T2 sequence (P55212 194-293 limits assumed): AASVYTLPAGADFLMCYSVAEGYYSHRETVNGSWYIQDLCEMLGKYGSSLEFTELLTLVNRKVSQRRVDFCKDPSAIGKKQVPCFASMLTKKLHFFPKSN
Description: Ki determination, ICE/ced-3 family protease fluorescence assay (MCH-2). How it is done: as §1, §2, §3, §4, §5, §6

The next assay has as its target T3, CPP32 (Homo sapiens, UniProt P42574).
T3 sequence (P42574 29-175 limits assumed): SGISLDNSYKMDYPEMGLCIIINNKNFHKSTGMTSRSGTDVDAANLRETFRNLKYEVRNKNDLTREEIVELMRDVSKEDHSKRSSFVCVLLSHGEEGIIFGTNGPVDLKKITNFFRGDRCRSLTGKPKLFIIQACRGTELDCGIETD
T3 sequence (P42574 176-277 limits assumed): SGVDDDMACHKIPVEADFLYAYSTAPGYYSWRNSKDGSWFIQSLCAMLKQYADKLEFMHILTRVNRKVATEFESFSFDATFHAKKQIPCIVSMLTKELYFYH
Description: Ki determination, ICE/ced-3 family protease fluorescence assay (CPP32). How it is done:
as §1, §2, §3, §4, §5, §6

By Ki is commonly meant the dissociation constant of the complex between target and ligand, obtained from inhibition or displacement. Take `C[C@H](NC(=O)C(=O)Nc1ccccc1C(C)(C)C)C(=O)N[C@@H](CC(=O)NS(C)(=O)=O)C(=O)COc1c(F)c(F)cc(F)c1F` [compound 1]: the Ki was 4 nM at mICE, 11 nM at MCH-5, 0.681 µM at MCH-2 and 856 nM at CPP32.

`CC(NC(=O)C(NC(=O)OCc1ccccc1)C(C)C)C(=O)NC(CC(=O)O)C(=O)CF` (stereo not drawn) [reference, Cbz-ValAlaAsp-CH2F] (Cbz-Val-Ala-Asp-CH2F; configuration not given here): the inhibition constant (Ki) is 15 nM on mICE, 18 nM at MCH-5, 0.594 µM at MCH-2 and 820 nM at CPP32.
